The values that follow come from patent US7501281B2, “Compositions, methods and kits related to thrombin, Notch signaling and stamatogenesis and growth of stem cells” (Maine Medical Center Research Institute, priority 2003, dated 2009).

One assay deals with T1, Delta1 (Homo sapiens, UniProt O00548).
T1 construct: made in house
T1 sequence (O00548 18-723): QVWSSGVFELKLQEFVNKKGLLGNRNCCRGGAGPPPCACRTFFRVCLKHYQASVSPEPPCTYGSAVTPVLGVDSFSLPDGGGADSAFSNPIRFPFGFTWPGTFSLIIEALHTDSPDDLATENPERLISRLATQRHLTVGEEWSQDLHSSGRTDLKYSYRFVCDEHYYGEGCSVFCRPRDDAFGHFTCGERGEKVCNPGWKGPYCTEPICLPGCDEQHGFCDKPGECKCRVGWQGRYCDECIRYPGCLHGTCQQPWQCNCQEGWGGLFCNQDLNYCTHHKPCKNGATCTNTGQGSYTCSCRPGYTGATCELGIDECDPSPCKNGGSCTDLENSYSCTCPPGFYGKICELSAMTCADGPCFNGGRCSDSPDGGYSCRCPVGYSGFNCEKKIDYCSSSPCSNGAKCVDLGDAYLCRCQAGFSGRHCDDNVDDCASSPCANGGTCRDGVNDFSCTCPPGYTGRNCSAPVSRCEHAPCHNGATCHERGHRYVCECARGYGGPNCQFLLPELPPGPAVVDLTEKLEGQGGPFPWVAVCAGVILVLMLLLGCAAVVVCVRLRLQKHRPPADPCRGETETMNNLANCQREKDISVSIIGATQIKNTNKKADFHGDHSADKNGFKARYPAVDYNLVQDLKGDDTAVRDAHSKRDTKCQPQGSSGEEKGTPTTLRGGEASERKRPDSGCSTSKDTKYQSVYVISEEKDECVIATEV
Kind of assay: Thrombin cleavage of in vitro translation product of Delta1. Format: biochemical.

The next assay has as its system NSC populations. In words: Clonal expansion of NSC on NIH 3T3 transfectant feeder layer. It is filed as cell-based.
The target in another assay is T2, human Jagged1 (Homo sapiens, UniProt P78504, A1171G).
T2 construct: full-length Jagged1 was in vitro transcribed and translated; made in house; host or cells: cell-free: T7-coupled reticulocyte lysate in vitro transcription/translation system (Promega)
T2 sequence (P78504 34-1218 A1171G): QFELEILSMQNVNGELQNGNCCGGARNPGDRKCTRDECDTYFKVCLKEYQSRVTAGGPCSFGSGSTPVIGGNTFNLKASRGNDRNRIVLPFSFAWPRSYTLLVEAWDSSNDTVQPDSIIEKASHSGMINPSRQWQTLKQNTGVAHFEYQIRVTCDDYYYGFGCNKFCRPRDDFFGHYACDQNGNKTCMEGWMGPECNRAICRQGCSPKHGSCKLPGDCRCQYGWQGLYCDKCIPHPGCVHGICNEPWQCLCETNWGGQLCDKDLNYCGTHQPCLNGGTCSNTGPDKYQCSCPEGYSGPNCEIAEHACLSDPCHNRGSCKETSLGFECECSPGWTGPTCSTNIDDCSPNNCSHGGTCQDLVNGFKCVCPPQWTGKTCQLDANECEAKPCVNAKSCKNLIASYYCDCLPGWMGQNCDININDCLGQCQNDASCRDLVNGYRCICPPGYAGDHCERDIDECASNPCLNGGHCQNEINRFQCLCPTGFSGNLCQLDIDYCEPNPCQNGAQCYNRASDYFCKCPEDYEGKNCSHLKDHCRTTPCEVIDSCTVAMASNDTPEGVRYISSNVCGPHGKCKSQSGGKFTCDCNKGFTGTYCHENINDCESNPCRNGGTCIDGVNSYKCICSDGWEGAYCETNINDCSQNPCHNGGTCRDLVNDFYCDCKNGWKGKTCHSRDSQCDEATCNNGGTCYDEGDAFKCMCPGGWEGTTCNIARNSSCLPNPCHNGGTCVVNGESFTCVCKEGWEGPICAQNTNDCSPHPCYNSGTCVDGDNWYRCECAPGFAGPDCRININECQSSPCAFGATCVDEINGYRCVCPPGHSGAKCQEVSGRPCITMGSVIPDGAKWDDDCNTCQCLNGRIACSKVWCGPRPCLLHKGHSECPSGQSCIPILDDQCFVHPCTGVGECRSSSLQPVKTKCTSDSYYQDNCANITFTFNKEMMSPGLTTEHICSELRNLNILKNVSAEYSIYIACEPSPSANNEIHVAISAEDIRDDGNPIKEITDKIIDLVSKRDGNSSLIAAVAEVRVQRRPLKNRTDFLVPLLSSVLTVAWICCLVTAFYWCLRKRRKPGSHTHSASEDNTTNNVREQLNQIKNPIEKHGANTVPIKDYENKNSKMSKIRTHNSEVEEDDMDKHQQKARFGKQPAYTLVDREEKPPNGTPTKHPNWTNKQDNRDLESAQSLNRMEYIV
Kind of assay: Thrombin cleavage of in vitro translated Jagged1 and Edman microsequencing. Format: biochemical. The protocol:
A plasmid containing human Jagged1 (Zimrin et al., 1996, J. Biol. Chem. 271:32499-32502) was in vitro transcribed and in vitro translated in the presence of a (^35S)-Met/Cys protein-labeling mixture (Amersham) using the T7-coupled reticulocyte lysate system according to the manufacturer's instructions (Promega) in a total volume of 50 μl. After 60 minutes incubation at 30° C., 0.05% DTT was added, half of the reaction mixture incubated with 10 μg α-thrombin for 15 minutes at 37° C., and the reaction stopped by boiling in the presence of SDS-PAGE sample buffer. The samples were resolved by 12% SDS-PAGE, transferred to a nitrocellulose membrane, and analyzed by autoradiography. […] The products of each cycle were collected prior to resolution by HPLC, added to liquid scintillation fluid (Beckman) and the (^35S) samples quantitated by liquid scintillation spectroscopy (Beckman).
In an attempt to further define this pathway and the role that sJ1 might play in the regulation of cell proliferation, it was assessed if the Jagged1 translation product was susceptible to proteolytic cleavage by thrombin. […] The Jagged1 transcript was translated in vitro in the presence of (^35S)-Cys, resolved by SDS-PAGE, the 95 kDa fragment excised, subjected to automated Edman chemistry and the products of each cycle monitored by liquid scintillation spectroscopy. […]

As to Thrombin, at Delta1, the “proteolytic modification of Delta1 translation product” value is “unable to proteolytically modify”. For the same substance, the “effect on size of NSC colonies” value in the assay with NSC populations (full-length Delta1 NIH 3T3 cell transfectant feeder layer) is given as “failed to induce”; in the assay with NSC populations (full-length Jagged1 NIH 3T3 cell transfectant feeder layer, 5 μg/ml thrombin) it was “exaggeration of the size of the NSC colonies”. The Jagged1 cleavage site result on human Jagged1 (Edman microsequencing of the 95 kDa fragment) was “between residues R348 and G349”. Further, at human Jagged1 (α-thrombin 15 minutes at 37° C.), the “cleavage products of the 134 kDa Jagged1 translation product” value is “cleavage of the full-length Jagged1 protein into 39 kDa and 95 kDa fragments”.
